Assay results as given in patent US7973083B2, “Pesticidally active compounds” (priority 2003, dated 2011).

Experiments:
Format in all cases: in vivo
[1] = system: Corn ‘NK58D1; assay: Field test, corn phytotoxicity after herbicide with or without insecticide (Table I); settings: scale 0-100
Protocol: (§1) Field tests were conducted in the following way: Corn was seeded with standard sowing implements and grown under natural conditions until the 2-3 leaf stage of corn was reached. Corn with or without insecticide treatments applied at seeding was grown at the same time. At 2-3 leaf stage, the herbicides only or in combination with the insecticide, if the insecticide has not been applied at seeding, was applied broadcast foliar over the top. At highest phytotoxicity levels for corn at five days after application and at maximal weed control levels at 16 days after application, the trial was evaluated.

[2] = system: Amaranthus retroflexus; assay: Field test, weed control (Table I); settings: scale 0-100
Protocol: as §1

[3] = system: Sweet Corn ‘Jubilee SS; assay: Field test, sweet corn phytotoxicity after herbicide with or without insecticide (Table I); settings: scale 0-100
Protocol: as §1

[4] = system: Corn Cecilia; assay: Glasshouse test, insecticide pre-plant incorporated followed by post application of herbicide, corn phytotoxicity (Table 2); settings: no insecticide, 20 days after last application
From the text: (§2) Insecticide Pre-Plant Incorporated Followed by Post Application of the Herbicide
(§3) Prior to the planting of corn and weed, the substrate was filled into plastic pots and the different insecticides were applied with glasshouse spray equipment on bare soil at rates indicated in the results table. After the insecticide application, the substrate in the pots was mixed up in order to get an even distribution of the insecticide throughout the pot Crop and weed were planted following this procedure and grown under standard glasshouse conditions allowing optimal plant growth until 2-3 leaf stage. Then the herbicides were applied according to the rates indicated in the results table post emergent foliar over the top including standard adjuvants. The plants were visually evaluated on a scale of 0-100% wherein 0% indicated no phytotoxicity and 100% indicated full control or death. 0-15% indicates acceptable crop tolerance, 85-100% acceptable weed control. The evaluation was done at the time when maximal phytotoxicity or activity occurred.

[5] = system: Solanum Nigrum; assay: Glasshouse test, insecticide pre-plant incorporated followed by post application of herbicide, weed control (Table 2); settings: no insecticide, 43 days after last application
From the text: as §2, §3

[6] = system: Corn Sweet honeycomb; assay: Glasshouse test, insecticide and herbicide tank-mixed post emergent, corn phytotoxicity (Table 3); settings: no insecticide, 8 days after last application
From the text: (§4) Insecticide and Herbicide Applied Tank-Mixed Post Emergent
as §3, with “pots.” for “pots and the different insecticides were applied with glasshouse spray equipment on bare soil at rates indicated in the results table. After the insecticide application, the substrate in the pots was mixed up in order to get an even distribution of the insecticide throughout the pot”, “according” for “according to”

[7] = system: Solanum Nigrum; assay: Glasshouse test, insecticide and herbicide tank-mixed post emergent, weed control (Table 3); settings: no insecticide, 34 days after last application
From the text: as §4
as §3, with “pots.” for “pots and the different insecticides were applied with glasshouse spray equipment on bare soil at rates indicated in the results table. After the insecticide application, the substrate in the pots was mixed up in order to get an even distribution of the insecticide throughout the pot”, “according” for “according to”

[8] = insecticide alone, in furrow at seeding 11.2 GA/100 Row M, 5 days
[9] = insecticide alone, post 1120 GA/Ha, 5 days
[10] = insecticide alone, in furrow at seeding 11.2 GA/100 Row M, 16 days
[11] = herbicide post 400 GA/Ha, scale 0-100
[12] = herbicide post, mesotrione 210 GA/Ha (a.e. for Cu), no insecticide, 5 days after last application

CCOP(=S)(OCC)Oc1nc(Cl)c(Cl)cc1Cl [Chlorpyrifos]
Phytotox. [1, 8]: 0%
Phytotox. [1, 9]: 0%
Weed Control [2, 10]: 0%
Weed Control ([2]; insecticide alone, post 1120 GA/Ha, 16 days): 0%
Phytotox. [3, 8]: 0%
Phytotox. [3, 9]: 0%

CS(=O)(=O)c1ccc(C(=O)C2C(=O)CCCC2=O)c([N+](=O)[O-])c1 [Mesotrione, 2-(2′-nitro-4′-methylsulphonylbenzoyl)-1,3-cyclohexanedione]
Phytotox. ([4]; herbicide post 100 GA/Ha): 5%
Phytotox. ([4]; herbicide post 200 GA/Ha): 0%
Phytotox. [4, 11]: 0%
Phytotox. ([1]; herbicide post, mesotrione 105 GA/Ha (a.e. for Cu), no insecticide, 5 days after last application, COC 1% V/V + UAN 2.5% V/V): 3.8%
Phytotox. [1, 12]: 8.8%
Weed Control ([2]; herbicide post, mesotrione 105 GA/Ha (a.e. for Cu), no insecticide, 16 days after last application): 90%
Weed Control ([2]; herbicide post, mesotrione 210 GA/Ha (a.e. for Cu), no insecticide, 16 days after last application): 95%
Weed Control ([5]; herbicide post 100 GA/Ha): 98%
Weed Control ([5]; herbicide post 200 GA/Ha): 100%
Weed Control [5, 11]: 0%
Phytotox. ([6]; herbicide post 100 GA/Ha): 10%
Phytotox. ([6]; herbicide post 200 GA/Ha): 20%
Phytotox. [6, 11]: 20%
Phytotox. ([3]; herbicide post, mesotrione 105 GA/Ha (a.e. for Cu), no insecticide, 5 days after last application): 16.3%
Phytotox. [3, 12]: 15%
Weed Control ([7]; herbicide post 100 GA/Ha): 100%
Weed Control ([7]; herbicide post 200 GA/Ha): 100%
Weed Control [7, 11]: 100%

CCOP(=S)(OCC)SCSC(C)(C)C [Terbufos]
Phytotox. [1, 8]: 0%
Weed Control [2, 10]: 0%
Phytotox. [3, 8]: 0%
